Experiments:
Assay in all cases: Bliss interaction score (quartile over a dose matrix) (fitness difference); higher = more antagonism (negative = synergy)
B. subtilis 168 = system: B. subtilis 168
Procedure, shortened: (§1)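 Growth was read as OD595 when cultures entered stationary phase, and each value was divided by the plate's robust no-drug mean and capped at 1. This normalised ratio is the fitness value, and fitness for each single drug came from the combination data. The Bliss score subtracts the expected fitness, taken as the product, from the observed fitness and is given as quartiles across technical, biological and donor/recipient replicates.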

S. aureus DSM 20231 = system: S. aureus DSM 20231
Procedure, shortened: as §1

S. aureus Newman = system: S. aureus Newman
Procedure, shortened: as §1

S. pneumoniae D39V = system: S. pneumoniae D39V
Procedure, shortened: as §1
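Further: first quartile when negative (synergy) and third quartile when positive (antagonism).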

Compound	Bliss interaction score (B. subtilis 168)	Bliss interaction score (S. aureus DSM 20231)	Bliss interaction score (S. aureus Newman)	Bliss interaction score (S. pneumoniae D39V)	Bliss interaction score (B. subtilis 168; main component drawn)	Bliss interaction score (S. aureus DSM 20231; main component drawn)	Bliss interaction score (S. aureus Newman; main component drawn)	Bliss interaction score (S. pneumoniae D39V; main component drawn)
CN(C)[C@@H]1C(O)=C(C(N)=O)C(=O)[C@@]2(O)C(O)=C3C(=O)c4c(O)ccc(Cl)c4[C@@](C)(O)[C@H]3C[C@@H]12 [Clortetracycline] + CN1C2=CC=CC=C2N=C3C1=CC=CC3=O [Pyocyanin]	0.0851	0.0397	-0.0515	-0.0238	–	–	–	–
N#CC(C#N)=NNc1cccc(Cl)c1 [CCCP] + C[C@H]1COc2c(N3CCN(C)CC3)c(F)cc3c(=O)c(C(=O)O)cn1c23 [Levofloxacin]	0.0457	-0.0231	0.0426	0.0909	–	–	–	–
C[C@@H]1O[C@@H]1P(=O)(O)O [Fosfomycin] + CO[C@@]12[C@H](COC(N)=O)C3=C(C(=O)C(C)=C(N)C3=O)N1C[C@@H]1N[C@@H]12 [MitomycinC]	-0.116	0.0499	-0.095	0.117	–	–	–	–
N#CC(C#N)=NNc1cccc(Cl)c1 [CCCP] + CCC[C@@H]1C[C@@H](C(=O)N[C@@H]([C@H]2O[C@H](SC)[C@H](O)[C@@H](O)[C@H]2O)[C@H](C)Cl)N(C)C1 [Clindamycin]	-0.0426	0.0216	0.0938	-0.138	–	–	–	–
O=C(O)c1cn(C2CC2)c2cc(N3CCNCC3)c(F)cc2c1=O [Ciprofloxacin] + Oc1cc(Cl)ccc1Oc1ccc(Cl)cc1Cl [Triclosan]	-0.0391	0.0355	-0.0217	0.0508	–	–	–	–
CC(=O)Oc1ccccc1C(=O)O [Acetylsalicylicacid] + CN(C)C(=O)C(CCN1CCC(O)(c2ccc(Cl)cc2)CC1)(c1ccccc1)c1ccccc1 [Loperamide]	0.0636	0.131	-0.0344	0.144	–	–	–	–
COc1ccc(C[C@H](N)C(=O)N[C@H]2[C@@H](O)[C@H](n3cnc4c(N(C)C)ncnc43)O[C@@H]2CO)cc1 [Puromycin] + Oc1cc(Cl)ccc1Oc1ccc(Cl)cc1Cl [Triclosan]	0.0476	0.0973	0.0281	0.102	–	–	–	–
C[C@H]1c2cccc(O)c2C(=O)C2=C(O)[C@]3(O)C(=O)C(C(N)=O)=C(O)[C@@H](N(C)C)[C@@H]3[C@@H](O)[C@@H]21 [Doxycycline] + CC(=O)O[C@H]1C[C@@]2(C)[C@@H](C[C@@H](O)[C@H]3[C@@]4(C)CC[C@@H](O)[C@@H](C)[C@@H]4CC[C@@]32C)/C1=C(\CCC=C(C)C)C(=O)O [Fusidic acid]	-0.049	-0.0196	0.0131	-0.0559	–	–	–	–
CN(C)[C@@H]1C(O)=C(C(N)=O)C(=O)[C@@]2(O)C(O)=C3C(=O)c4c(O)ccc(Cl)c4[C@@](C)(O)[C@H]3C[C@@H]12 [Clortetracycline] + Cc1cc(NS(=O)(=O)c2ccc(N)cc2)no1 [Sulfamethoxazol]	0.0702	-0.058	0.0566	-0.0455	–	–	–	–
N#CC(C#N)=NNc1cccc(Cl)c1 [CCCP] + CN1C2=CC=CC=C2N=C3C1=CC=CC3=O [Pyocyanin]	-0.0772	-0.0215	-0.0376	-0.0451	–	–	–	–
N#CC(C#N)=NNc1cccc(Cl)c1 [CCCP] + CO[C@@H]1[C@@H](OC(N)=O)[C@@H](O)[C@H](Oc2ccc3c(O)c(NC(=O)c4ccc(O)c(CC=C(C)C)c4)c(=O)oc3c2C)OC1(C)C [Novobiocin]	-0.144	0.0738	0.0377	0.164	–	–	–	–
CC1(C)S[C@@H]2[C@H](NC(=O)Cc3ccccc3)C(=O)N2[C@H]1C(=O)O [PenicillinG] + Cn1nnc(-c2ccc(-c3ccc(N4C[C@H](CO)OC4=O)cc3F)cn2)n1 [Tedizolid]	0.0625	0.057	-0.0888	0.106	–	–	–	–
CC(=O)Oc1ccccc1C(=O)O [Acetylsalicylicacid] + CC[C@H](C)[C@H](N)C1=N[C@H](C(=O)N[C@@H](CC(C)C)C(=O)N[C@H](CCC(=O)O)C(=O)N[C@H](C(=O)N[C@H]2CCCCNC(=O)[C@H](CC(N)=O)NC(=O)[C@@H](CC(=O)O)NC(=O)[C@H](Cc3cnc[nH]3)NC(=O)[C@@H](Cc3ccccc3)NC(=O)[C@H]([C@@H](C)CC)NC(=O)[C@@H](CCCN)NC2=O)[C@@H](C)CC)CS1 [Bacitracin]	–	–	–	–	0.123	0.0276	-0.0752	0.165
CO/N=C(\C(=O)N[C@@H]1C(=O)N2C(C(=O)O)=C(COC(N)=O)CS[C@H]12)c1ccco1 [Cefuroxime] + O=C(O)c1cn(C2CC2)c2cc(N3CCNCC3)c(F)cc2c1=O [Ciprofloxacin]	-0.171	-0.31	-0.0563	-0.0381	–	–	–	–
N#CC(C#N)=NNc1cccc(Cl)c1 [CCCP] + COc1cccc2c1C(=O)c1c(O)c3c(c(O)c1C2=O)C[C@@](O)(C(=O)CO)C[C@@H]3O[C@H]1C[C@H](N)[C@H](O)[C@H](C)O1 [Doxorubicin]	-0.0695	0.0424	-0.0546	-0.0519	–	–	–	–
